Source: patent US11008357B2, “Method for preparing canagliflozin amorphous form” (Zhejiang Huahai Pharmaceutical Co., Ltd., priority 2017, dated 2021)
Like-named read-outs stand apart in the source and are kept apart here.

Key:
[1] = Stability test of canagliflozin amorphous forms (moisture absorption, crystal transition); assay type: physicochemical; conditions: Temperature 25 ± 5° C., Humidity 50-60%, 3 months
From the text: In order to illustrate that the canagliflozin amorphous form of the present invention is different from the amorphous form prepared by the general amorphous preparation method, the inventors select and compare the amorphous forms obtained by the above-mentioned practical methods, including rapid evaporation of solvent for curing, mixed solvent method and other related methods.

[2] = stability test conditions not documented in the literature; cited from earlier work

| SMILES | Crystal transition or not [1] | Obvious moisture absorption or not [1] | Crystal transition or not [2] | Obvious moisture absorption or not [2] |
| --- | --- | --- | --- | --- |
| Cc1ccc([C@@H]2O[C@H](CO)[C@@H](O)[C@H](O)[C@H]2O)cc1Cc1ccc(-c2ccc(F)cc2)s1 [CN104119323 Example 1, reference compound] | No | No obvious |  |  |
| Cc1ccc([C@@H]2O[C@H](CO)[C@@H](O)[C@H](O)[C@H]2O)cc1Cc1ccc(-c2ccc(F)cc2)s1 [CN103889429 Example 2] |  |  | No | No obvious |
